# Laboratory results from PubChem BioAssay AID2060906 (Molecular Pharmacology Branch, DTP, NCI, 2025).
# Test system: 485176-168-R4-J1-PDC complex spheroid growth
# Test: Anticancer human tumor 485176-168-R4-J1-PDC patient-derived pancreatic adenocarcinoma cell line growth inhibition [RAS]
# Conditions: for IC50: curve of first compound; for viability, T/C: stronger effect = lower value
# Excerpt: RAS pathway inhibitors in Combinations in Complex Spheroids
# A high-throughput screen of multi-cell type tumor spheroids was designed to identify active combinations of RAS pathway inhibitors and targeted small molecules. Complex spheroids include a stromal component modeled by human endothelial cells (HUVEC) and fibroblasts modeled by human mesenchymal stem cells (MSCs). The concentration ranges selected for each drug and investigational agent were based upon clinically achievable concentrations if the clinical Cmax of the agent was known.
# Compounds. The drugs and investigational agents: abemaciclib (NSC768073), cobimetinib (NSC768068), divarasib (GDC6063, NSC841802), docetaxel (NSC628503), GDC-1971 (RLY-1971, NSC841576), gemcitabine (NSC613327), inavolisib (NSC800729), ipatasertib (NSC767898), KB-0742 (NSC834161), MRTX-1133 (NSC836407), osimertinib (NSC779217), RMC-4630 (NSC839698), RMC-6236 (NSC851965), RMC-6291 (NSC852671), Ro-3306 (NSC812927), sapanisertib (NSC764658), SN-38 (NSC673596), staurosporine (NSC755774), SY5609 (NSC837396), and tovorafenib (DAY101, NSC766906), were obtained from the National Cancer Institute (NCI) Developmental Therapeutics Program Chemical Repository. The FDA-approved anticancer drug set is available from the NCI Developmental Therapeutics Program. […] The stock solutions were prepared in dimethyl sulfoxide (DMSO, Sigma-Aldrich, St. Louis, MO, cat. D2650) at 800-fold the tested concentration and stored at -70 degrees C prior to their use. All drugs and investigational agents were tested over a range starting from a high concentration at or near the clinical Cmax and decreasing in half-log increments. If the clinical Cmax for an agent had not been determined, the highest concentration tested was 10 microM.
# Cell Culture. All cells were maintained in an incubator at 37 degrees C and 5% CO2 with 95% humidity. The PDC lines were cultured according to standard operating procedures established by the NCI PDMR. All PDCs were thawed and cultured in Matrigel-coated flasks prepared with a working solution of 1X Ham's F-12 nutrient mix, without supplementation (Invitrogen, Waltham, MA, cat. 11765054), 100 U/mL penicillin-streptomycin (Invitrogen, cat. 15140122), and 2.5% Matrigel (Corning Inc., Corning, NY, cat. 354248) for the first three passages. The 362531-283-R-J2-PDC and 782815-120-R-J1-PDC lines were cultured in 6C/Colon 1B media, which includes advanced DMEM/F-12 (Thermo Fisher Scientific, cat. 12634028), 10 mM HEPES (Thermo Fisher Scientific, cat. 15630080), 1X GlutaMAX supplement (Thermo Fisher Scientific, cat. 35050061), 0.1 mg/mL primocin (InvivoGen, San Diego, CA, cat. ant-pm-2), 10% defined fetal bovine serum, heat inactivated (HyClone Laboratories Inc., Logan, UT, cat. SH30070.03HI), 50% L-WRN conditioned media (ATCC, cat. CRL-3276), 1.25 mM N-Acetyl-L-cysteine (Sigma-Aldrich, cat. A9165), 10 mM nicotinamide (Sigma-Aldrich, cat. N0636), 1X B-27 supplement (Thermo Fisher Scientific, cat. 17504044), 1X N-2 supplement (Thermo Fisher Scientific, cat. 17502048), 50 ng/mL human EGF (Thermo Fisher Scientific, cat. PHG0311), and 10 microM Y-27632 dihydrochloride (Tocris Bioscience, cat. 1254). The K12877-001-R-J1-PDC line was cultured in 6I media, which includes all 6C/Colon 1B media plus 10 ng/mL human FGF-10 (PeproTech, cat. 100-26), 1 ng/mL human FGF-2 (PeproTech, cat. 100-18B), 1 µM prostaglandin E2 (Tocris Bioscience, cat. 2296), […] hydrocortisone (Sigma-Aldrich, cat. H4001), and […] bovine insulin (Sigma-Aldrich, cat. I6634). The K86415-001-R-J1-PDC line was cultured in 6D media, which includes all 6C/Colon 1B media components minus the L-WRN conditioned media. The 485176-168-R4-J1-PDC was cultured in PANC media, which includes all 6C/Colon 1B media plus 100 ng/mL human FGF-10 (PeproTech, cat. 100-26), 500 nM SB-431542 (Selleckchem, cat. S1067), and 10 nM gastrin (Tocris Bioscience, cat. 3006). […]
# 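Also: spheroids exposed to compounds for seven days before readout.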
# 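For viability, T/C in this document: luminescence viability expressed relative to DMSO vehicle wells set as 100%.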
compound,measurement,setting,value
CC(C)NCC(C(=O)N1CCN(c2ncnc3c2C(C)CC3O)CC1)c1ccc(Cl)cc1 (configuration not stated) + C#Cc1c(F)ccc2cc(O)cc(-c3ncc4c(N5CC6CCC(C5)N6)nc(OCC56CCCN5CC(F)C6)nc4c3F)c12,IC50,second compound 0.0316 µM,3.29 µM
same,IC50,second compound 0.1 µM,0.851 µM
same,IC50,second compound 0.316 µM,2.77 µM
same,IC50,second compound 1 µM,0.884 µM
same,IC50,second compound 3.16 µM,2.12 µM
same,IC50,second compound 10 µM,1.51 µM
same,"viability, T/C","second compound 0.0316 µM, first compound 0.0316 µM",113%
same,"viability, T/C","second compound 0.0316 µM, first compound 0.1 µM",99.2%
same,"viability, T/C","second compound 0.0316 µM, first compound 0.316 µM",84.7%
same,"viability, T/C","second compound 0.0316 µM, first compound 1 µM",70.1%
same,"viability, T/C","second compound 0.0316 µM, first compound 3.16 µM",47.3%
same,"viability, T/C","second compound 0.0316 µM, first compound 10 µM",38.5%
same,"viability, T/C","second compound 0.1 µM, first compound 0.0316 µM",99%
same,"viability, T/C","second compound 0.1 µM, first compound 0.1 µM",127%
same,"viability, T/C","second compound 0.1 µM, first compound 0.316 µM",72.8%
same,"viability, T/C","second compound 0.1 µM, first compound 1 µM",59.8%
same,"viability, T/C","second compound 0.1 µM, first compound 3.16 µM",45.6%
same,"viability, T/C","second compound 0.1 µM, first compound 10 µM",33.4%
same,"viability, T/C","second compound 0.316 µM, first compound 0.0316 µM",109%
same,"viability, T/C","second compound 0.316 µM, first compound 0.1 µM",96.5%
same,"viability, T/C","second compound 0.316 µM, first compound 0.316 µM",72.7%
same,"viability, T/C","second compound 0.316 µM, first compound 1 µM",65.4%
same,"viability, T/C","second compound 0.316 µM, first compound 3.16 µM",51.8%
same,"viability, T/C","second compound 0.316 µM, first compound 10 µM",31.1%
same,"viability, T/C","second compound 1 µM, first compound 0.0316 µM",92.2%
same,"viability, T/C","second compound 1 µM, first compound 0.1 µM",105%
same,"viability, T/C","second compound 1 µM, first compound 0.316 µM",72.4%
same,"viability, T/C","second compound 1 µM, first compound 1 µM",51.4%
same,"viability, T/C","second compound 1 µM, first compound 3.16 µM",48.5%
same,"viability, T/C","second compound 1 µM, first compound 10 µM",35.3%
same,"viability, T/C","second compound 3.16 µM, first compound 0.0316 µM",99.3%
same,"viability, T/C","second compound 3.16 µM, first compound 0.1 µM",96.1%
same,"viability, T/C","second compound 3.16 µM, first compound 0.316 µM",82.9%
same,"viability, T/C","second compound 3.16 µM, first compound 1 µM",53.8%
same,"viability, T/C","second compound 3.16 µM, first compound 3.16 µM",52%
same,"viability, T/C","second compound 3.16 µM, first compound 10 µM",31%
same,"viability, T/C","second compound 10 µM, first compound 0.0316 µM",104%
same,"viability, T/C","second compound 10 µM, first compound 0.1 µM",87.9%
same,"viability, T/C","second compound 10 µM, first compound 0.316 µM",82.6%
same,"viability, T/C","second compound 10 µM, first compound 1 µM",55.8%
same,"viability, T/C","second compound 10 µM, first compound 3.16 µM",36.8%
same,"viability, T/C","second compound 10 µM, first compound 10 µM",33.9%
